{"source": "paper PMC5887109", "about": "“Unravelling the Molecular Determinants of Bee Sensitivity to Neonicotinoid Insecticides” (Current Biology, 2018)", "tested_on": "transgenic Drosophila expressing B. terrestris CYP9Q4", "experiment": "Insecticide bioassay of transgenic Drosophila expressing CYP9Q4", "format": "in vivo, Drosophila melanogaster", "settings": "Act5C-GAL4 driven; ratio of LC50 values", "method": "Fly lines were made homozygous for the transgene integrations. […] LC50 values were calculated as above."}
{"smiles": "O=[N+]([O-])NC1=NCCN1Cc1ccc(Cl)nc1", "note": "[imidacloprid]", "values": [{"measurement": "resistance compared to control flies without the transgene", "result": "no significant differences"}]}
